# Laboratory results taken from patent publication US9289383B2, “Method of reducing intraocular pressure in humans” (Inotek Pharmaceuticals Corporation, priority 2010, dated 2016).
# Read-outs that look alike come from different tables or passages of the source.
# Key:
# [1] = tested on: optic nerve head tissue blood flow; settings: 10 nmol, injected intravitreally, rabbits; cited from earlier work
# intraocular pressure [2] = settings: CPA 165 μg; cited from earlier work
# intraocular pressure [3] = settings: topical in DMSO, three mice, cited from earlier work
# [4] = In-vitro cornea permeability study (vertical diffusion apparatus); assay type: in vitro ADME, rabbit; settings: for CPA levels detected on the other side of the cornea membrane (receiver chamber): compound applied to donor side of rabbit cornea membrane, GBR buffer pH 7.4, 37° C.; for cornea permeability: topical delivery to cornea
# Protocol: The compounds (2a) and (2g) were prepared in powder form by Inotek Pharmaceuticals Corp. (Lexington, Mass.). Low-permeability control compound atenolol and all other chemicals were purchased from Sigma (St. Louis, Mo.). The buffer used in the permeability assessment was a glutathione-bicarbonated Ringer's (GBR) solution (110 mM NaCl, 5 mM KCl, 1 mM NaH2PO4, 30 mM NaHCO3, 1 mM CaCl2, 0.75 mM Mg Cl2, 5 mM D-glucose, and 0.3 mM reduced glutathione), pH 7.4, which was freshly prepared on the day of the experiment and oxygenated with O2/CO2 (95:5) to pH 7.4.
# The compounds (2a) and (2g) were reconstituted in saline and diluted (10-fold) into the assay at a final concentration between 50 μM and 2.6 mM. Male Dutch-belted pigmented rabbits (1.5-2.5 kg body weight, 3-3.5 months old) were purchased from Covance Research Products Inc. (Denver, Pa.). The animal handling performed in this study conformed to the Guiding Principles in the Care and Use of Animals (DHEW Publication, NIH 80-23). The rabbits were euthanized by CO2 asphyxiation, and the heads were transported on ice to a testing facility, where dissection of the eyes was performed.
# The corneal tissues were excised and mounted on a Harvard vertical diffusion apparatus as shown in FIG. 3 with a diffusion area of 0.64 cm2. Preheated (37° C.), pH 7.4. GBR buffer was added to the mucosal (1.5 mL) and the serosal (1.5 mL) chambers. The diffusion apparatus was maintained at 37° C. throughout the entire transport experiment. Oxygenation and agitation were achieved by bubbling O2/CO2 (95:5) through each chamber at a rate of 5-6 bubbles per second. After the 30-minute equilibration, blank GBR buffer in the mucosal (donor) chamber was withdrawn and replaced with GBR assay buffer containing the compound (2a) or the compound (2g). The transport experiments lasted 2 hours and were performed in duplicate. Every 60 minutes, 0.2-mL samples were collected from the serosal (receiver) chamber and replenished with 0.2-mL blank GBR buffer, except at the last time point; at the end of the experiment, samples were also collected from the mucosal (donor) chambers for mass balance determination.
# After the transport experiment, tissue integrity (system suitability) was assessed by measuring the permeation of a low permeability control compound, atenolol, across the tissue. Donor chamber contents were replaced with GBR buffer containing 100μM atenolol, and receiver chambers were replaced with fresh blank GBR buffer. After 30 minutes of incubation, samples were collected from both chambers for analysis. The post-experimental system suitability assessment was considered acceptable if duplicate measurements yielded a mean apparent permeability (Papp) value for atenolol <1·10^−6 cm/s.
# Compound A and compounds (2a) and (2g) and atenolol concentrations in the donor and receiver chambers were analyzed by LC-MS/MS methods. Apparent permeability (Papp) values were calculated using the following equation: Papp=(dCr/dt)·Vr/(A·C0)
# Where, dCr /dt was the slope of the linear portion of the cumulative concentration in the receiver compartment over time in μM/sec, Vr was the volume of the receiver chamber in cm^3, A was the diffusion area in cm^2, and C0 was the measured dosing concentration in μM.
# Recovery was calculated using the following equation: Recovery=100·([…])/(Vd·C0)
# Where, Vr was the volume of the receiver compartment in cm^3, Vd was the volume of the donor compartment in cm^3, C0 was the dosing concentration in μM, Cr^final was the cumulative receiver concentration in μM and Cd^final was the donor concentration in μM at the end of the incubation.
# [5] = In vivo study of CPA concentration in the anterior chamber after topical administration to the cornea; settings: Dutch Belted rabbits, topical to the cornea (FIG. 4)
# intraocular pressure [6] = experiment: IOP of human subjects after topical administration of Compound A to the cornea; assay type: in vivo
# Source text: As a result of this analysis, CPA has been identified as an active metabolite in clinical studies after the topical administration of Compound A to the cornea of human subjects.
# [7] = Analysis of human plasma after topical administration of Compound A; assay type: in vivo; settings: human subject, topical to the cornea, LC/MS/MS
# Protocol: After the administration of Compound A topically to a cornea of a human, at selected time points (e.g., Day 1: pre-dose, 5, 15, 25, 35. and 45 min and 1, 2, 4, 8 and 24 hours) samples of whole blood (10 mL) were collected for pharmacokinetic assessments using a vacutainer tube containing sodium heparin as an anticoagulant, via catheter, saline lock, or by venipuncture. The blood components were separated by centrifugation at 4° C. following standard clinical laboratory procedures for preparation of plasma from whole blood (e.g., 3000 rpm for approximately 10 min). For each sample, approximately 1 mL of plasma was stored at −20° C. or colder until analysis for Compound A and CPA concentration. Human plasma samples were analyzed for Compound A concentrations using a validated liquid chromatography/tandem mass spectrometry (LC/MS/MS) method with a lower limit of quantitation (LLOQ) of 10.0 pg/mL and a linear range from 10.0 to 2000 pg/mL. Plasma concentrations of (N(6)-cyclopentyladenosine, CPA) were also measured in some samples using a validated LC/MS/MS method with a lower limit of quantitation of 10.0 pg/mL and a linear range from 10.0 to 2000 pg/mL.
cornea permeability [4],CPA in plasma after administration of Compound A [7],Compound,optic nerve head tissue blood flow [1],effect on rabbit IOP (intraocular pressure [2]),change in IOP (intraocular pressure [3]; CPA at 100 nM),change in IOP (intraocular pressure [3]; CPA at 1 mM),CPA levels detected on the other side of the cornea membrane (receiver chamber) [4],concentration of CPA in the anterior chamber over time [5],IOP course after buildup of CPA in plasma (intraocular pressure [6]),transient elevation in IOP (intraocular pressure [6])
significant cornea permeability,,"CC(C)C(=O)OC[C@H]1O[C@@H](n2cnc3c(NC4CCCC4)ncnc32)[C@H](O)[C@@H]1O [Compound 2a, N^6-Cyclopentyl-5′-O-isobutyryl-adenosine]",,,,,significant levels of CPA were measureable,,,
significant cornea permeability,,"CCCCCCCC(=O)OC[C@H]1O[C@@H](n2cnc3c(NC4CCCC4)ncnc32)[C@H](O)[C@@H]1O [Compound 2g, N^6-Cyclopentyl-5′-O-octanoyl-adenosine]",,,,,significant levels of CPA were measureable,,,
,detection of CPA in the plasma,"O=[N+]([O-])OC[C@H]1O[C@@H](n2cnc3c(NC4CCCC4)ncnc32)[C@H](O)[C@@H]1O [Compound A, ((2R,3S,4R,5R)-5-(6-(cyclopentylamino)-9H-purin-9-yl)-3,4-dihydroxytetrahydrofuran-2-yl)methyl nitrate]",,,,,significant levels of CPA on the other side of the cornea membrane,build up in concentration of CPA in the anterior chamber over time,continues to decline,no transient elevation in IOP is seen

Compound,cornea permeability [4],CPA in plasma after administration of Compound A [7],optic nerve head tissue blood flow [1],effect on rabbit IOP (intraocular pressure [2]),change in IOP (intraocular pressure [3]; CPA at 100 nM),change in IOP (intraocular pressure [3]; CPA at 1 mM),CPA levels detected on the other side of the cornea membrane (receiver chamber) [4],concentration of CPA in the anterior chamber over time [5],IOP course after buildup of CPA in plasma (intraocular pressure [6]),transient elevation in IOP (intraocular pressure [6])
"OC[C@H]1O[C@@H](n2cnc3c(NC4CCCC4)ncnc32)[C@H](O)[C@@H]1O [CPA, N^6-cyclopentyladenosine]",does not have sufficient cornea permeability,,increased the optic nerve head tissue blood flow,reduction of rabbit IOP,−6.8 mm Hg,−1.0 mm Hg,much less than that detected when Compound A is topically applied to the cornea,build up in concentration of CPA in the anterior chamber over time,,
